# Source: PubChem BioAssay (NCI)
# “And” between values parts separate entries of the source, which are not always exact repeats. Identical values can stand only once.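 All cell lines were grown in 96-well plates and treated with compound for 48 hours. GI50 marks 50% less growth. TGI is the concentration that stops growth completely.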
# Experiments:
# Experiment in all cases: NCI tumour cell line growth inhibition, 48 h
# 786-0 renal = tested on: 786-0 renal
# A498 renal = tested on: A498 renal
# A549 NSCLC = tested on: A549 NSCLC
# ACHN renal = tested on: ACHN renal
# BT-549 breast = tested on: BT-549 breast
# CAKI-1 renal = tested on: CAKI-1 renal
# CCRF-CEM leukemia = tested on: CCRF-CEM leukemia
# COLO 205 colon = tested on: COLO 205 colon
# DU-145 prostate = tested on: DU-145 prostate
# EKVX NSCLC = tested on: EKVX NSCLC
# HCC-2998 colon = tested on: HCC-2998 colon
# HCT-116 colon = tested on: HCT-116 colon
# HCT-15 colon = tested on: HCT-15 colon
# HL-60(TB) leukemia = tested on: HL-60(TB) leukemia
# HOP-62 NSCLC = tested on: HOP-62 NSCLC
# HOP-92 NSCLC = tested on: HOP-92 NSCLC
# HS 578T breast = tested on: HS 578T breast
# HT29 colon = tested on: HT29 colon
# IGROV1 ovarian = tested on: IGROV1 ovarian
# K-562 leukemia = tested on: K-562 leukemia
# KM12 colon = tested on: KM12 colon
# LOX IMVI melanoma = tested on: LOX IMVI melanoma
# M14 melanoma = tested on: M14 melanoma
# MALME-3M melanoma = tested on: MALME-3M melanoma
# MCF7 breast = tested on: MCF7 breast
# MDA-MB-231 breast = tested on: MDA-MB-231 breast
# MDA-MB-435 = tested on: MDA-MB-435
# MDA-N = tested on: MDA-N
# MOLT-4 leukemia = tested on: MOLT-4 leukemia
# NCI-H226 lung = tested on: NCI-H226 lung
# NCI-H23 lung = tested on: NCI-H23 lung
# NCI-H460 lung = tested on: NCI-H460 lung
# NCI-H522 lung = tested on: NCI-H522 lung
# NCI/ADR-RES ovarian = tested on: NCI/ADR-RES ovarian
# OVCAR-3 ovarian = tested on: OVCAR-3 ovarian
# OVCAR-4 ovarian = tested on: OVCAR-4 ovarian
# OVCAR-5 ovarian = tested on: OVCAR-5 ovarian
# OVCAR-8 ovarian = tested on: OVCAR-8 ovarian
# PC-3 prostate = tested on: PC-3 prostate
# RPMI-8226 leukemia = tested on: RPMI-8226 leukemia
# RXF 393 renal = tested on: RXF 393 renal
# SF-268 CNS = tested on: SF-268 CNS
# SF-295 CNS = tested on: SF-295 CNS
# SF-539 CNS = tested on: SF-539 CNS
# SK-MEL-2 melanoma = tested on: SK-MEL-2 melanoma
# SK-MEL-28 melanoma = tested on: SK-MEL-28 melanoma
# SK-MEL-5 melanoma = tested on: SK-MEL-5 melanoma
# SK-OV-3 ovarian = tested on: SK-OV-3 ovarian
# SN12C renal = tested on: SN12C renal
# SNB-19 CNS = tested on: SNB-19 CNS
# SNB-75 CNS = tested on: SNB-75 CNS
# SR leukemia = tested on: SR leukemia
# SW-620 colon = tested on: SW-620 colon
# T-47D breast = tested on: T-47D breast
# TK-10 renal = tested on: TK-10 renal
# U251 CNS = tested on: U251 CNS
# UACC-257 melanoma = tested on: UACC-257 melanoma
# UACC-62 melanoma = tested on: UACC-62 melanoma
# UO-31 renal = tested on: UO-31 renal
smiles,measurement,setting,value
CC1=C/C(O)CC(=O)Cc2nc(co2)C(=O)N2CCC=C2C(=O)OC(C(C)C)C(C)/C=C\C(=O)NC/C=C\1 (stereo not drawn),GI50,786-0 renal,26.2 µM
same,TGI,786-0 renal,90.1 µM and 60.8 µM
same,GI50,A498 renal,44.9 µM
same,TGI,A498 renal,> 84.1 µM and 76.3 µM
same,GI50,A549 NSCLC,25.1 µM
same,TGI,A549 NSCLC,> 100 µM
same,GI50,ACHN renal,31.8 µM
same,TGI,ACHN renal,> 100 µM and 29.7 µM
same,TGI,BT-549 breast,> 47.9 µM and 51.6 µM
same,GI50,CAKI-1 renal,44.4 µM
same,TGI,CAKI-1 renal,> 84.1 µM and 70.1 µM
same,GI50,CCRF-CEM leukemia,7.35 µM
same,TGI,CCRF-CEM leukemia,> 100 µM and 81.9 µM
same,GI50,COLO 205 colon,3.09 µM
same,TGI,COLO 205 colon,15 µM and 38.9 µM
same,GI50,DU-145 prostate,18.5 µM
same,TGI,DU-145 prostate,45.2 µM and > 100 µM
same,GI50,EKVX NSCLC,36.4 µM
same,TGI,EKVX NSCLC,> 100 µM and 53.3 µM
same,GI50,HCC-2998 colon,16.2 µM
same,TGI,HCC-2998 colon,31.6 µM and 34.5 µM
same,GI50,HCT-116 colon,3.63 µM
same,TGI,HCT-116 colon,14.8 µM and 28.1 µM
same,GI50,HCT-15 colon,28.8 µM
same,TGI,HCT-15 colon,> 89.5 µM and 46.6 µM
same,GI50,HL-60(TB) leukemia,14.5 µM
same,TGI,HL-60(TB) leukemia,> 100 µM
same,GI50,HOP-62 NSCLC,19.1 µM
same,TGI,HOP-62 NSCLC,> 100 µM
same,GI50,HOP-92 NSCLC,18 µM
same,TGI,HOP-92 NSCLC,> 86.2 µM
same,GI50,HS 578T breast,> 75.8 µM
same,TGI,HS 578T breast,> 100 µM and 59.4 µM
same,GI50,HT29 colon,13.2 µM
same,TGI,HT29 colon,30.7 µM and 31.8 µM
same,GI50,IGROV1 ovarian,18.6 µM
same,TGI,IGROV1 ovarian,48.2 µM and 36.6 µM
same,GI50,K-562 leukemia,> 59.5 µM
same,TGI,K-562 leukemia,> 100 µM
same,GI50,KM12 colon,15.1 µM
same,TGI,KM12 colon,30.3 µM and 25.3 µM
same,GI50,LOX IMVI melanoma,12.9 µM
same,TGI,LOX IMVI melanoma,34.7 µM and 36.1 µM
same,GI50,M14 melanoma,23 µM
same,TGI,M14 melanoma,> 100 µM and 42.3 µM
same,GI50,MALME-3M melanoma,23.1 µM
same,TGI,MALME-3M melanoma,> 65.9 µM and 25.2 µM
same,GI50,MCF7 breast,5.89 µM
same,TGI,MCF7 breast,25.1 µM and 41.2 µM
same,GI50,MDA-MB-231 breast,27.1 µM
same,TGI,MDA-MB-231 breast,> 71.4 µM and 61.4 µM
same,GI50,MDA-MB-435,20.3 µM
same,TGI,MDA-MB-435,> 94.2 µM and 80.4 µM
same,TGI,MDA-N,67.9 µM
same,GI50,MOLT-4 leukemia,8.54 µM
same,TGI,MOLT-4 leukemia,> 32.6 µM and 53.5 µM
same,GI50,NCI-H226 lung,> 46.3 µM
same,TGI,NCI-H226 lung,> 100 µM
same,GI50,NCI-H23 lung,14.2 µM
same,TGI,NCI-H23 lung,44.4 µM and 37.7 µM
same,GI50,NCI-H460 lung,17.8 µM
same,TGI,NCI-H460 lung,58 µM and > 100 µM
same,GI50,NCI-H522 lung,15.2 µM
same,TGI,NCI-H522 lung,> 65.6 µM and 11.8 µM
same,GI50,NCI/ADR-RES ovarian,> 100 µM
same,TGI,NCI/ADR-RES ovarian,> 100 µM
same,GI50,OVCAR-3 ovarian,13.6 µM
same,TGI,OVCAR-3 ovarian,37.6 µM and 93.6 µM
same,GI50,OVCAR-4 ovarian,16.1 µM
same,TGI,OVCAR-4 ovarian,> 100 µM
same,GI50,OVCAR-5 ovarian,31.6 µM
same,TGI,OVCAR-5 ovarian,71.8 µM and 75.6 µM
same,GI50,OVCAR-8 ovarian,24.8 µM
same,TGI,OVCAR-8 ovarian,> 100 µM and 35 µM
same,GI50,PC-3 prostate,65.4 µM
same,TGI,PC-3 prostate,> 100 µM
same,GI50,RPMI-8226 leukemia,7.98 µM
same,TGI,RPMI-8226 leukemia,> 100 µM and 43.4 µM
same,GI50,RXF 393 renal,27.8 µM
same,TGI,RXF 393 renal,> 100 µM
same,GI50,SF-268 CNS,20.9 µM
same,TGI,SF-268 CNS,54.4 µM and 43.4 µM
same,GI50,SF-295 CNS,22.3 µM
same,TGI,SF-295 CNS,> 100 µM
same,GI50,SF-539 CNS,10.9 µM
same,TGI,SF-539 CNS,46.3 µM and > 100 µM
same,GI50,SK-MEL-2 melanoma,10.1 µM
same,TGI,SK-MEL-2 melanoma,> 100 µM
same,TGI,SK-MEL-28 melanoma,44.6 µM and 46.3 µM
same,GI50,SK-MEL-5 melanoma,10.3 µM
same,TGI,SK-MEL-5 melanoma,29.3 µM and > 100 µM
same,TGI,SK-OV-3 ovarian,> 100 µM
same,GI50,SN12C renal,25.9 µM
same,TGI,SN12C renal,> 100 µM and 29.2 µM
same,GI50,SNB-19 CNS,18.1 µM
same,TGI,SNB-19 CNS,40.3 µM and > 100 µM
same,GI50,SNB-75 CNS,21.4 µM
same,TGI,SNB-75 CNS,> 100 µM
same,GI50,SR leukemia,> 100 µM
same,TGI,SR leukemia,> 100 µM and 44.6 µM
same,GI50,SW-620 colon,10.5 µM
same,TGI,SW-620 colon,35 µM and 37.7 µM
same,GI50,T-47D breast,8.3 µM
same,TGI,T-47D breast,> 48.5 µM and 36.8 µM
same,GI50,TK-10 renal,> 100 µM
same,TGI,TK-10 renal,> 100 µM and 96.1 µM
same,GI50,U251 CNS,24.8 µM
same,TGI,U251 CNS,> 100 µM
same,GI50,UACC-257 melanoma,12.6 µM
same,TGI,UACC-257 melanoma,35.5 µM and > 100 µM
same,GI50,UACC-62 melanoma,20.1 µM
same,TGI,UACC-62 melanoma,> 57.6 µM and 32.3 µM
same,GI50,UO-31 renal,25.7 µM
same,TGI,UO-31 renal,91.7 µM
C=C1C(=O)OC2/C=C(\C)CC/C=C(\C)CC(OC(=O)/C(=C/CO)CO)[C@@H]12 (stereo partly drawn),TGI,786-0 renal,11.5 µM
same,TGI,A498 renal,34.6 µM
same,TGI,A549 NSCLC,57.3 µM
same,TGI,ACHN renal,19.3 µM
same,TGI,BT-549 breast,26.5 µM
same,TGI,CAKI-1 renal,14.1 µM
same,TGI,CCRF-CEM leukemia,6.75 µM
same,TGI,COLO 205 colon,5.4 µM
same,TGI,DU-145 prostate,42.3 µM
same,TGI,EKVX NSCLC,29 µM
same,TGI,HCC-2998 colon,33.5 µM
same,TGI,HCT-116 colon,10.7 µM
same,TGI,HCT-15 colon,29.7 µM
same,TGI,HL-60(TB) leukemia,12.6 µM
same,TGI,HOP-92 NSCLC,13.5 µM
same,TGI,HS 578T breast,63.4 µM
same,TGI,HT29 colon,20.6 µM
same,TGI,IGROV1 ovarian,26.1 µM
same,TGI,K-562 leukemia,9.21 µM
same,TGI,KM12 colon,35.1 µM
same,TGI,LOX IMVI melanoma,31.1 µM
same,TGI,M14 melanoma,11.4 µM
same,TGI,MALME-3M melanoma,5.81 µM
same,TGI,MCF7 breast,22.9 µM
same,TGI,MDA-MB-231 breast,28.2 µM
same,TGI,MDA-MB-435,19 µM
same,TGI,MDA-N,20.2 µM
same,GI50,MOLT-4 leukemia,1.92 µM
same,TGI,MOLT-4 leukemia,5.55 µM
same,TGI,NCI-H226 lung,> 80.4 µM
same,TGI,NCI-H23 lung,29.4 µM
same,TGI,NCI-H460 lung,48.8 µM
same,TGI,NCI-H522 lung,3.5 µM
same,TGI,NCI/ADR-RES ovarian,59.6 µM
same,TGI,OVCAR-3 ovarian,18.4 µM
same,TGI,OVCAR-4 ovarian,27.5 µM
same,TGI,OVCAR-5 ovarian,31.3 µM
same,TGI,OVCAR-8 ovarian,4.07 µM
same,TGI,PC-3 prostate,31.8 µM
same,TGI,RPMI-8226 leukemia,5.74 µM
same,TGI,RXF 393 renal,21.3 µM
same,TGI,SF-268 CNS,45 µM
same,TGI,SF-295 CNS,> 100 µM
same,TGI,SF-539 CNS,26.3 µM
same,TGI,SK-MEL-2 melanoma,34.6 µM
same,TGI,SK-MEL-28 melanoma,31.2 µM
same,TGI,SK-MEL-5 melanoma,26.1 µM
same,TGI,SK-OV-3 ovarian,> 100 µM
same,TGI,SN12C renal,27.2 µM
same,TGI,SNB-19 CNS,> 85.7 µM
same,TGI,SNB-75 CNS,29.8 µM
same,TGI,SR leukemia,> 23.8 µM
same,TGI,SW-620 colon,3.36 µM
same,TGI,T-47D breast,15.9 µM
same,TGI,TK-10 renal,15.8 µM
same,TGI,U251 CNS,4.71 µM
same,TGI,UACC-257 melanoma,24.2 µM
same,TGI,UACC-62 melanoma,34.2 µM
same,TGI,UO-31 renal,23.9 µM
